From PMC12335538 (2025)

System: 62 CA8 (RNA, riboswitch) GGAGACCGAAAGCUGGGGACGACCCCAGAAAGACCAAAAGCUGGGGACGACCCCAGAAAGACCGA
Assay: in-line probing
Conditions: 20 mM MgCl2, 100 mM KCl; 50 mM Tris pH 8.3, room temperature, 48 h; apparent; mean of three replicates; Hill 1.50 ± 0.3

`N=C(N)N` showed a KD of 111 ± 3 µM.
